Results reported in ChEMBL document CHEMBL1133266, “Effects of 2-(substituted-sulfanyl)-3,5-dihydro-imidazole-4-one and 2-(substituted-sulfanyl)-1H-imidazole-4,5-dione derivatives on serum HDL-cholesterol” (2000).

Each compound was assayed on Rattus norvegicus (assay: Compound was evaluated for increase of high density lipoprotein cholesterol (HDL-C) in cholesterol fed male rats after treatment for 8 days at a dose of 80 mg/kg/day; Average % HDL-C change in 6 animals).
Type: functional

Row | Compound | Change
1 | CCSC1=NCC(=O)N1c1ccc(F)cc1 | 140%

What follows are compounds tested on Rattus norvegicus (assay: Compound was evaluated in vivo for the increase of very low density lipoprotein cholesterol (VLDL-C) in cholesterol fed male rats).
Type: functional

Row | Compound | Increase
2 | CCSC1=NCC(=O)N1c1ccccc1C | 78%

The compounds below were run on Rattus norvegicus (assay: Increase of high density lipoprotein cholesterol (HDL-C) in cholesterol fed male rats after treatment for 8 days at a dose of 100 mg/kg/day; Average % HDL-C change in 6 animals).
Type: functional

Row | Compound | Change
3 | CCSC1=NC(=O)C(=O)N1c1ccccc1C | 48%
4 | CCSC1=NCC(=O)N1c1cc(Cl)ccc1OC | 66%
5 | CCSC1=NCC(=O)N1c1c(Cl)cccc1Cl | 169%
6 | CCSC1=NC(C)C(=O)N1c1cc(Cl)ccc1C (stereo not drawn) | 211%
7 | CCSC1=NCC(=O)N1c1c(C)cccc1Cl | 71%
8 | Cc1ccc(Cl)cc1N1C(=O)CN=C1SCc1ccccc1 | 102%
9 | CCSC1=NCC(=O)N1c1ccc(C)c(Cl)c1 | 45%
10 | CCSC1=NCC(=O)N1c1ccccc1C | 139%
11 | CCSC1=NCC(=O)N1c1c(C)cccc1C | 75%
12 | CCSC1=NCC(=O)N1c1cc(F)ccc1C | 32%
13 | CCSC1=NCC(=O)N1c1cc(Cl)ccc1C | 153%
14 | CCSC1=NCC(=O)N1c1ccccc1 | 89%
15 | CCSC1=NCC(=O)N1c1cccc(Cl)c1C | 26%
16 | CCSC1=NCC(=O)N1c1ccccc1Cl | 74%
17 | CCSC1=NC(=O)C(=O)N1c1cc(Cl)ccc1C | 85%
18 | CCSC1=NCC(=O)N1c1ccc(Cl)cc1C | 39%
